Assay results from the supplement of paper PMC10011410.

Key:
[1] = system: U-2 OS; assay: cell painting activity score (Mahalanobis distance from DMSO wells); higher = stronger morphological phenotype; conditions: 24 h
Description: (§1)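 Cell painting in U-2 OS cells (384-well, about 1,500 cells per well), compound exposure 24 h, usually six 2-fold concentrations from 20 to 0.625 uM (some compounds higher or lower). Relative cell count is the cell number per well relative to DMSO wells. Activity score is the Mahalanobis distance of the morphological profile from DMSO control wells. Mean of four technical replicate plates.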

[2] = system: U-2 OS; assay: relative cell count vs DMSO (cell painting) (fraction of DMSO control); higher = more cells remaining (less cytotoxic); conditions: 24 h
Description: as §1

[3] = system: U-2 OS; assay: AUC of culture confluence over time (live-cell imaging) (AUC (confluence % x time)); higher = more confluent culture (less growth inhibition)
Description: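 Live-cell Incucyte imaging of U-2 OS cells in F-12K medium. Compounds were tested mostly at 5, 10 and 20 uM, and cells were imaged every 4 h for up to 60 h. Value is the area under the curve of phase-contrast confluence over time.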

SMILES | cell painting activity score ([1]; 0.625 µM) | cell painting activity score ([1]; 1.25 µM) | cell painting activity score ([1]; 2.5 µM) | cell painting activity score ([1]; 5 µM) | cell painting activity score ([1]; 10 µM) | cell painting activity score ([1]; 20 µM) | cell painting activity score ([1]; 40 µM) | cell painting activity score ([1]; 80 µM) | relative cell count ([2]; 0.625 µM) | relative cell count ([2]; 1.25 µM) | relative cell count ([2]; 2.5 µM) | relative cell count ([2]; 5 µM) | relative cell count ([2]; 10 µM) | relative cell count ([2]; 20 µM) | relative cell count ([2]; 40 µM) | relative cell count ([2]; 80 µM) | AUC of culture confluence over time ([3]; 5 µM) | AUC of culture confluence over time ([3]; 10 µM) | AUC of culture confluence over time ([3]; 20 µM) | cell painting activity score ([1]; 0.2062 µM) | cell painting activity score ([1]; 0.4124 µM) | cell painting activity score ([1]; 0.825 µM) | cell painting activity score ([1]; 1.65 µM) | cell painting activity score ([1]; 3.3 µM) | cell painting activity score ([1]; 6.6 µM) | relative cell count ([2]; 0.2062 µM) | relative cell count ([2]; 0.4124 µM) | relative cell count ([2]; 0.825 µM) | relative cell count ([2]; 1.65 µM) | relative cell count ([2]; 3.3 µM) | relative cell count ([2]; 6.6 µM)
CCN1C(=O)C=CC1=O | 4.77 | 5.69 | 7.04 | 9.18 | 20.6 | 26.6 | 5.94 | 6.33 | 0.938 | 0.928 | 0.891 | 0.724 | 0.254 | 0.0684 | 0.911 | 0.885 | – | – | – | – | – | – | – | – | – | – | – | – | – | – | –
S=P(N1CC1)(N1CC1)N1CC1 | 3.3 | 3.39 | 3.97 | 4.44 | 5.38 | 7.45 | – | – | 1.06 | 0.967 | 0.939 | 0.904 | 0.942 | 0.856 | – | – | 39.2 | 31 | 32.9 | – | – | – | – | – | – | – | – | – | – | – | –
CC1(C)[C@@H](O[C@H]2O[C@H](C(=O)O)[C@@H](O)[C@H](O)[C@H]2O[C@@H]2O[C@H](C(=O)O)[C@@H](O)[C@H](O)[C@H]2O)CC[C@]2(C)[C@H]3C(=O)C=C4[C@@H]5C[C@@](C)(C(=O)O)CC[C@]5(C)CC[C@@]4(C)[C@]3(C)CC[C@@H]12.N | 4.09 | 5.25 | 5.85 | 3.67 | 3.06 | 3.66 | – | – | 1 | 0.993 | 0.972 | 0.982 | 1 | 1.03 | – | – | 50.8 | 48.2 | 51 | – | – | – | – | – | – | – | – | – | – | – | –
CCCCc1c(-c2ccc(OC)cc2)[nH]c2nccnc12 | 4.99 | 3.58 | 6.25 | 6.12 | 8.25 | 8.09 | – | – | 1.01 | 0.952 | 0.968 | 0.949 | 0.927 | 0.624 | – | – | 53.2 | 47.6 | 52.7 | – | – | – | – | – | – | – | – | – | – | – | –
CC(C)C[C@H](NC(=O)[C@H](CCc1ccccc1)NC(=O)CN1CCOCC1)C(=O)N[C@@H](Cc1ccccc1)C(=O)N[C@@H](CC(C)C)C(=O)[C@@]1(C)CO1 | 30.8 | 31.9 | 32.5 | 31.5 | 28.8 | 29.7 | – | – | 0.149 | 0.136 | 0.125 | 0.141 | 0.143 | 0.149 | – | – | 18.4 | 17.5 | 16.1 | – | – | – | – | – | – | – | – | – | – | – | –
Cc1[nH]c2ccccc2c1CCNCc1ccc(/C=C/C(=O)NO)cc1 | 16.3 | 16 | 15.9 | 15.3 | 13.8 | 16.2 | – | – | 0.494 | 0.472 | 0.445 | 0.466 | 0.474 | 0.419 | – | – | 16.7 | 19.5 | 21 | – | – | – | – | – | – | – | – | – | – | – | –
COC1=C2C[C@@H](C)C[C@H](OC)[C@H](O)[C@@H](C)/C=C(\C)[C@H](OC(N)=O)[C@@H](OC)/C=C\C=C(/C)C(=O)NC(=CC1=O)C2=O | 8.75 | 12.7 | 13 | 14 | 13.3 | 14.5 | – | – | 0.954 | 0.911 | 0.867 | 0.759 | 0.663 | 0.619 | – | – | 20.3 | 18.8 | 20.8 | – | – | – | – | – | – | – | – | – | – | – | –
O.O=P1(N(CCCl)CCCl)NCCCO1 (stereo unspecified) | 3.69 | 3.83 | 3.34 | 3.43 | 4.46 | 9.23 | – | – | 0.967 | 0.999 | 0.965 | 0.985 | 0.993 | 0.941 | – | – | 43.1 | 41.1 | 44.2 | – | – | – | – | – | – | – | – | – | – | – | –
CC1(C)CC[C@]2(C(=O)O[C@@H]3O[C@H](CO)[C@@H](O)[C@H](O)[C@H]3O)CC[C@]3(C)C(=CC[C@@H]4[C@@]5(C)CC[C@H](O[C@@H]6O[C@H](C(=O)O)[C@@H](O)[C@H](O)[C@H]6O[C@@H]6O[C@H](CO)[C@@H](O)[C@H](O)[C@H]6O)C(C)(C)[C@@H]5CC[C@]43C)[C@@H]2C1 | 4.68 | 4.76 | 5.42 | 5.24 | 6.27 | 9.37 | – | – | 0.971 | 0.973 | 0.949 | 0.938 | 0.915 | 0.964 | – | – | 54.4 | 51.1 | 57.6 | – | – | – | – | – | – | – | – | – | – | – | –
Nc1ccn([C@@H]2O[C@H](CO)[C@@H](O)C2(F)F)c(=O)n1 | 13.7 | 14 | 14.9 | 15.2 | 15.4 | 14.3 | – | – | 0.601 | 0.571 | 0.574 | 0.581 | 0.624 | 0.589 | – | – | 29.2 | 31.9 | 28.7 | – | – | – | – | – | – | – | – | – | – | – | –
CCN(CCO)CCCOc1ccc2c(Nc3cc(CC(=O)Nc4cccc(F)c4)[nH]n3)ncnc2c1 | 14.3 | 14.4 | 14.3 | 14.3 | 14.5 | 14.9 | – | – | 0.771 | 0.757 | 0.76 | 0.8 | 0.788 | 0.757 | – | – | 30.4 | 32.1 | 29.6 | – | – | – | – | – | – | – | – | – | – | – | –
[Cl][Pt+2][Cl].[NH2-].[NH2-] | – | – | – | – | – | – | – | – | – | – | – | – | – | – | – | – | – | – | – | 5.52 | 4.94 | 3.93 | 5.77 | 3.26 | 9.14 | 0.954 | 0.964 | 0.902 | 0.701 | 0.937 | 0.666
O=C(O)CSc1cc(NS(=O)(=O)c2ccc(Br)cc2)c2ccccc2c1O | 4.65 | 5.25 | 6.44 | 7.75 | 8.94 | 11.1 | – | – | 0.954 | 0.952 | 0.961 | 0.926 | 0.881 | 0.694 | – | – | 44 | 35.2 | 25.1 | – | – | – | – | – | – | – | – | – | – | – | –
Cc1ccc(S(=O)(=O)/C=C/C#N)cc1 | 10.4 | 12.9 | 16.7 | 18.3 | 21 | 23.7 | – | – | 0.923 | 0.942 | 0.678 | 0.485 | 0.231 | 0.286 | – | – | – | – | – | – | – | – | – | – | – | – | – | – | – | – | –
O=C([O-])C(=O)[O-].[NH-][C@@H]1CCCC[C@H]1[NH-].[Pt+4] | 4.3 | 8.95 | 20.4 | 20 | 19.8 | 22.1 | – | – | 0.86 | 0.786 | 0.66 | 0.501 | 0.35 | 0.203 | – | – | – | – | – | – | – | – | – | – | – | – | – | – | – | – | –
CC(C)C[C@@H](C=O)NC(=O)[C@H](CC(C)C)NC(=O)[C@H](CC(C)C)NC(=O)OCc1ccccc1 | 5.55 | 9.38 | 15.5 | 15.7 | 16 | 17.7 | – | – | 0.974 | 0.824 | 0.479 | 0.226 | 0.124 | 0.103 | – | – | – | – | – | – | – | – | – | – | – | – | – | – | – | – | –
CCN(CC)CCNC(=O)c1c(C)[nH]c(/C=C2\C(=O)Nc3ccc(F)cc32)c1C | 11.2 | 11.5 | 11.3 | 12.4 | 14.5 | 25.1 | – | – | 0.983 | 0.945 | 0.983 | 0.917 | 0.831 | 0.503 | – | – | – | – | – | – | – | – | – | – | – | – | – | – | – | – | –
